These results are taken from patent publication US9688637B2, “3-amidobenzamides and uses thereof for increasing cellular levels of A3G and other A3 family members” (Northwestern University, priority 2014, dated 2017).

Data set [1] addresses A3G (Homo sapiens, UniProt Q9HC16). As to conditions: described by others (ref. 39); cited from earlier work.
Data set [2] relates to 293T cells. Briefly: Cellular cytotoxicity by counting cells after 48 hrs with compound vs DMSO. Type of data set: cell-based. The method, then:
(§1) To screen compounds that can boost A3G levels, 293T cells (25,000 cells per well in 96-well plate) stably expressing A3G-Luc protein or A3G-Luc/Vif proteins were plated. After 24 hrs post plating culture medium was replaced with 100 μl of new medium containing either DMSO as a control or various compounds (10 μM concentration). After 48 hrs of incubation with compounds culture medium was removed from each well and replaced with 100 μl of Britelite Plus luciferase assay substrate (PerkinElmer). Following 5 min. of incubation at room temperature, 75 μl of each cell lysate was transferred to a 96-well OptiPlate 96 (PerkinElmer) and luminescence was measured in a VICTOR X2 Multilabel Reader (PerkinElmer). Relative activity of compounds for their boosting capability A3G-Luc activity was calculated by plotting DMSO-treated A3G-Luc or A3G-Luc/Vif cells as 100%. Cellular cytotoxicity was measured by counting number of cells after 48 hrs of incubation with compounds compared to DMSO treated cells.

Data set [3] deals with A3G-Luc. Briefly: A3G-Luc luciferase screen in 293T cells stably expressing A3G-Luc. In kind it is cell-based, human. Conditions: 48 hrs, DMSO = 100%.
Description: This background led to construction of cell lines to use in a search for compounds that might boost levels of A3s in the HIV target cells of the majority of HIV-infected persons who are non-controllers. The goal is to test a strategy of using such a booster in acute/early infection to prevent the hypothesized decrease of A3G and related A3s in an effort to increase “control” in persons lacking HLA B57/27-associated control. […] 293T and TZM-bl cells were maintained in DMEM (containing 4.5 g/liter glucose, L-glutamine, and sodium pyruvate) medium plus 10% fetal bovine serum, 50 IU/ml penicillin, and 50 μg/ml streptomycin at 37° C. and 5% CO2 throughout the experiments. […]. After collecting viral supernatant, 293T cells were infected with viral particles harboring the A3G-Luc expressing vector and selected with puromycin (0.75 μg/ml) for three days. Ten single cell clones of stable cells were isolated and tested for expression of A3G-Luc protein by both immunoblotting using antibody against A3G and measuring luciferase activity. Expressions in cell lines used for subsequent experiments are depicted in FIG. 2, upper panel. The A3G-Luc fusion protein was sensitive to Vif-mediated degradation (FIG. 3). Similar cells lines stably expressing A3F were constructed with the same methods (not shown).
as §1, with “After 24 hrs post plating culture medium was replaced with 100 μl of new medium containing either DMSO as a control or various compounds (10 μM concentration).” left out

Data set [4] has as its system A3G-Luc/Vif. Nature of the data set: A3G-Luc/Vif luciferase screen in 293T cells stably co-expressing A3G-Luc and HIV-1 Vif. Type of data set: cell-based, human. Conditions: 30 μM, 48 hrs, DMSO = 100%.
For data set [5], the system named is BC-1. Briefly: BC-1 primary effusion lymphoma cell proliferation. In kind it is cell-based. As to conditions: primary effusion lymphoma (PEL) cell line (FIG. 10). An excerpt:
FIG. 10. A primary effusion lymphoma (PEL) cell line (BC-1, infected with both Kaposi's sarcoma herpesvirus and Epstein Barr Virus) is also killed by the listed compounds.

Data set [6] relates to A3G-Luc/Vif. Briefly: A3G-Luc/Vif luciferase screen in 293T cells stably co-expressing A3G-Luc and HIV-1 Vif. Type of data set: cell-based, human. As to conditions: 10 μM, 48 hrs, DMSO = 100%. The procedure:
FIG. 6. 293T cell clone #6 stably co-expressing A3G-Luciferase fusion protein together with HIV-1 Vif was used. Small molecule compounds were tested for their effects on stability of A3G and inhibition of Vif activity against A3G by measuring luciferase activity, relative to treatment with control DMSO only. The relative % luciferase activity was higher after treatment with NU compounds than DMSO.
[…]. After sorting, expression of both A3G-Luc and Vif was confirmed by immunoblotting using antibody against both A3G and Vif.
as §1

Sequence of A3G (Q9HC16 whole entry): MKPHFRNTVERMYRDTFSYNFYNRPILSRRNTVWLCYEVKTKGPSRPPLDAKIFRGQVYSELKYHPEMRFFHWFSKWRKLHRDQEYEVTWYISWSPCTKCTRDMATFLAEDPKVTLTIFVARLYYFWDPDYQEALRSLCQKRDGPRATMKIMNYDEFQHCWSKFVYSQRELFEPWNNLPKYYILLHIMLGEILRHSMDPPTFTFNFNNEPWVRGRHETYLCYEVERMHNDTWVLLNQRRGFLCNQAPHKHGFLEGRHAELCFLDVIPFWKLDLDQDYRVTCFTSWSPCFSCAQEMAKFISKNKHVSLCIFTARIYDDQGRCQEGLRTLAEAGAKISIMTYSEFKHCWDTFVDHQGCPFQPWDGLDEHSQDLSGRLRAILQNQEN

Take `COc1ccc(C(=O)Nc2cc(OC)c(OC)c(OC)c2)cc1NC(=O)C(C)Br` (stereo not shown) [IMB-26, reference compound]: the “binding to A3G and degradation of A3G by Vif” value in data set [1] is “directly bind to A3G and prevent its degradation by Vif”. The “toxicity to 293T cells” value in data set [2] is recorded as “toxic”.

For `COc1ccc(NC(=O)c2ccc(OC)c(NC(=O)C(C)C)c2)cc1` [NU-54], the “A3G-Luc Activity (% of Relative Light Units compared to DMSO treated control)” value in data set [3] (30 μM) is 137%. In data set [4], the “Vif-A3G-Luc Activity (% of RLUs compared to DMSO treated control)” value is 116%.

Take `COc1ccc(C(=O)Nc2cc(OC)c(OC)c(OC)c2)cc1NC(=O)C(C)C` [NU-56]: the “A3G-Luc Activity (% of Relative Light Units compared to DMSO treated control)” value in data set [3] (30 μM) is listed as 114%. In addition, the “Vif-A3G-Luc Activity (% of RLUs compared to DMSO treated control)” value in data set [4] amounted to 93%.

`CCC(=O)Nc1cc(C(=O)Nc2cc(OC)c(OC)c(OC)c2)ccc1OC` [NU-57]: the “A3G-Luc Activity (% of Relative Light Units compared to DMSO treated control)” value in data set [3] (30 μM) came out at 87%. In addition, the “Vif-A3G-Luc Activity (% of RLUs compared to DMSO treated control)” value in data set [4] is given as 74%.

As for `COc1ccc(C(=O)Nc2cc(OC)c(OC)c(OC)c2)cc1NC(C)=O` [NU-58], the “A3G-Luc Activity (% of Relative Light Units compared to DMSO treated control)” value in data set [3] (30 μM) is listed as 123%. Moreover, the “Vif-A3G-Luc Activity (% of RLUs compared to DMSO treated control)” value in data set [4] came out at 93%.

For `COc1ccc(C(=O)Nc2ccc(Cl)c(Cl)c2)cc1N(C)C(=O)C(C)C` [NU-611], the “A3G-Luc Activity (% of Relative Light Units compared to DMSO treated control)” value in data set [3] (10 μM) came out at 67%. For the same molecule, the BC-1 cell proliferation entry in data set [5] is “inhibit BC-1 cell proliferation”. Also, the “Vif-A3G-Luc Activity (% of RLUs compared to DMSO treated control)” value in data set [6] turned out to be 75%.
